{
  "source": "patent US9446127B2",
  "about": "“Compositions including androgen receptor degradation (ARD) enhancers and methods of prophylactic or therapeutic treatment of skin disorders and hair loss” (AndroScience Corporation, priority 2007, dated 2016)",
  "key": {"[1]": {"tested_on": "ER beta, PPARα, β or γ, RXRα, hsp70, actin", "test": "Specificity Western blot in LNCaP cell lysates, other nuclear receptors or proteins", "type": "cell-based, human", "conditions": "1 or 5 micromolar, 24 hours, presence or absence of DHT", "experimental": "(§1) Human prostate cancer LNCaP cells and T47D cells were plated at a density of 7×10^5 cells per 60 millimeter tissue culture dish in […] medium containing 10% FBS. The medium was changed to RPMI or DME medium containing 10% charcoal-stripped serum 24 hours later to deplete cellular androgens or estrogens. After another 24 hours, treatment with the test compounds began. The test dose of ASC-J9 was 1, and 5 and micromolar. LNCap cells also received dihydrotestosterone (DHT) (3 nanomolar). Control cells received a corresponding amount of the vehicle, dimethylsulfoxide (DMSO) (<0.04%) for an equivalent exposure time. Cells were incubated with ASC-J9 for 24 hours, and were lysed in 250 microliters of 1×SDS/PAGE loading buffer. Approximately 40 micrograms of total cellular protein was loaded in each lane of a pre-cast gel (NuPAGE, Invitrogen). Protein separation and transfer were performed following the manufacturer's instructions.\n(§2) For the LNCaP cell lysates, androgen receptor (AR) protein was visualized by incubating the resultant membranes with an anti-AR antibody (BD-PharMingen), followed by chemiluminescence detection (ECL Plus, Amersham). […] The resultant protein signals were quantified using densitometry and NIH ImageJ software."}, "androgen receptor (AR)": {"target": "T1, androgen receptor (AR) (Homo sapiens, UniProt P10275, T878A)", "T1 construct": "endogenous in cells; host or cells: LNCaP", "T1 sequence (P10275 1-920 T878A)": "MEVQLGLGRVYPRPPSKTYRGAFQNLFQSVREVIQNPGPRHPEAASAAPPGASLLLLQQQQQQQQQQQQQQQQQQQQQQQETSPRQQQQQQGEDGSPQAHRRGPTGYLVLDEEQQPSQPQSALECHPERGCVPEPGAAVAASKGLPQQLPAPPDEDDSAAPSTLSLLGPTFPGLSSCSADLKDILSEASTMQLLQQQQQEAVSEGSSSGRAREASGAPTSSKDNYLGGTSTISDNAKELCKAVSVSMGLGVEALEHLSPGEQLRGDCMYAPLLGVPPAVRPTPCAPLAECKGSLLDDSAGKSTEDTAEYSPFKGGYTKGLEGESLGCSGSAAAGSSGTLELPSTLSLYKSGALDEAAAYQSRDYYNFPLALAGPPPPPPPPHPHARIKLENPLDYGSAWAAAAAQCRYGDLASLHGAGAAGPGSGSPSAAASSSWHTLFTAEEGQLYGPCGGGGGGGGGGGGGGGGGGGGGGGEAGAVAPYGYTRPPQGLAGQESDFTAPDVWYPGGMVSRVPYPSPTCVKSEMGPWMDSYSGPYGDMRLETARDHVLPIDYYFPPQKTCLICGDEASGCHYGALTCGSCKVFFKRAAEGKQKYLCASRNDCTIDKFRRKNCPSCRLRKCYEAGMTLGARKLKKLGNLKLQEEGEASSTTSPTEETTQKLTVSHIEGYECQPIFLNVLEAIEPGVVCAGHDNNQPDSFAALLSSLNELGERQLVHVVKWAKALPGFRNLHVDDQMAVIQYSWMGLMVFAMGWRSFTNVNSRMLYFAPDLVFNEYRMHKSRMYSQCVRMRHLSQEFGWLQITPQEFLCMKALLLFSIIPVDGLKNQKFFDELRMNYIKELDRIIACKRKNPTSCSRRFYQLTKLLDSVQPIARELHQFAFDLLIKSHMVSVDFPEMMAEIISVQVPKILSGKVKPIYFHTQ", "test": "Specificity Western blot in LNCaP cell lysates, AR", "type": "cell-based", "conditions": "1 or 5 micromolar, 24 hours, presence or absence of DHT", "experimental": "as §1, §2"}},
  "data": [
    {"smiles": "COc1ccc(C=CC(=O)C=C(O)C=Cc2ccc(OC)c(OC)c2)cc1OC", "note": "[ASC-J9, 5-hydroxy-1,7-bis(3,4-dimethoxyphenyl)-1,4,6-heptatrien-3-one]", "values": [
      {"measurement": "other tested nuclear receptors or proteins", "setting": "[1]", "result": "did not substantially affect"},
      {"measurement": "cellular concentration of AR", "setting": "androgen receptor (AR)", "result": "significantly decreased"}
    ]}
  ]
}
